# Assay results published in patent US6358885B1, “Substituted phenylheterocyclic herbicides” (Mississippi State University, priority 1992, dated 2002).
# How the values were obtained:
# Assay in all cases: Test F preemergence/postemergence greenhouse plant response rating 0 to 100
# lambsquarters = format: in vivo, Chenopodium album; conditions: POSTEMERGENCE, 0 to 100 scale
# Excerpt: (§1) Compounds evaluated in this test were formulated in a non-phytoxic solvent and applied to the soil surface before plant seedlings emerged (preemergence application) and to plants that were in the one-to-four leaf stage (postemergence application). A sandy loam soil was used for the preemergence test while a mixture of sandy loam soil and greenhouse potting mix in a 60:40 ratio was used for the postemergence test. Test compounds were applied within approximately one day after planting seeds for the preemergence test. Plantings of these crops and weed species were adjusted to produce plants of appropriate size for the postemergence test. All plant species were grown using normal greenhouse practices. Crop and weed species include winter barley (Hordeum vulgare cv. ‘Igri’), blackgrass (Alopecurus myosuroides), chickweed (Stellaria media), downy brome (Bromus tectorum), field violet (Viola arvensis), galium (Galium aparine), green foxtail (Setaria viridis), kochia (Kochia scoparia), lambsquarters (Chenopodium album), speedwell (Veronica persica), rape (Brassica napus), ryegrass (Lolium multiflorum), sugar beet (Beta vulgaris cv. ‘USl’), sunflower (Helianthus annuus cv. ‘Russian Giant’), spring wheat (Triticum aestivum cv. ‘ERA’), winter wheat (Triticum aestivum cv. ‘Talent’), wild buckwheat (Polygonum convolvulus), wild mustard (Sinapis arvensis), wild oat (Avena fatua), and wild radish (Raphanus raphanistrum). Blackgrass, galium and wild oat were treated at two growth stages. […] Treated plants and untreated controls were maintained in a greenhouse for approximately 21 to 28 days, after which all treated plants were compared to untreated controls and visually evaluated. […] A dash response (-) means no test result.
# winter wheat = format: in vivo, Triticum aestivum cv. ‘Talent’; conditions: POSTEMERGENCE, 0 to 100 scale
# Excerpt: as §1
# wild oat = format: in vivo, Avena fatua; conditions: POSTEMERGENCE, 0 to 100 scale; for Wild oat (1) plant response rating: stage (1) two to three leaves; for Wild oat (2) plant response rating: stage (2) approximately four leaves or initial tillering
# Excerpt: as §1
# speedwell = format: in vivo, Veronica persica; conditions: POSTEMERGENCE, 0 to 100 scale
# Excerpt: as §1
# kochia = format: in vivo, Kochia scoparia; conditions: POSTEMERGENCE, 0 to 100 scale
# Excerpt: as §1
# wild mustard = format: in vivo, Sinapis arvensis; conditions: POSTEMERGENCE, 0 to 100 scale
# Excerpt: as §1
# spring wheat = format: in vivo, Triticum aestivum cv. ‘ERA’; conditions: POSTEMERGENCE, 0 to 100 scale
# Excerpt: as §1
# sugar beet = format: in vivo, Beta vulgaris cv. ‘USl’; conditions: POSTEMERGENCE, 0 to 100 scale
# Excerpt: as §1
# galium = format: in vivo, Galium aparine; conditions: POSTEMERGENCE, 0 to 100 scale; for Galium (1) plant response rating: stage (1) two to three leaves; for Galium (2) plant response rating: stage (2) approximately four leaves or initial tillering
# Excerpt: as §1
# wild radish = format: in vivo, Raphanus raphanistrum; conditions: POSTEMERGENCE, 0 to 100 scale
# Excerpt: as §1
# winter barley = format: in vivo, Hordeum vulgare cv. ‘Igri’; conditions: POSTEMERGENCE, 0 to 100 scale
# Excerpt: as §1
# green foxtail = format: in vivo, Setaria viridis; conditions: POSTEMERGENCE, 0 to 100 scale
# Excerpt: as §1
# ryegrass = format: in vivo, Lolium multiflorum; conditions: POSTEMERGENCE, 0 to 100 scale
# Excerpt: as §1
# downy brome = format: in vivo, Bromus tectorum; conditions: POSTEMERGENCE, 0 to 100 scale
# Excerpt: as §1
# chickweed = format: in vivo, Stellaria media; conditions: POSTEMERGENCE, 0 to 100 scale
# Excerpt: as §1
smiles,measurement,setting,value
CCOC(=O)COc1cc(-c2nn3c(c2Cl)CCCC3)c(F)cc1Cl [Compound 42],Lambsquarters plant response rating,lambsquarters; Rate 2 g/ha,55
same,Lambsquarters plant response rating,lambsquarters; Rate 4 g/ha,60
same,Lambsquarters plant response rating,lambsquarters; Rate 8 g/ha,60
same,Lambsquarters plant response rating,lambsquarters; Rate 16 g/ha,100
same,Lambsquarters plant response rating,lambsquarters; Rate 32 g/ha,100
same,Wheat (Winter) plant response rating,winter wheat; Rate 2 g/ha,0
same,Wheat (Winter) plant response rating,winter wheat; Rate 4 g/ha,0
same,Wheat (Winter) plant response rating,winter wheat; Rate 8 g/ha,10
same,Wheat (Winter) plant response rating,winter wheat; Rate 16 g/ha,10
same,Wheat (Winter) plant response rating,winter wheat; Rate 32 g/ha,10
same,Wild oat (1) plant response rating,wild oat; Rate 2 g/ha,0
same,Wild oat (2) plant response rating,wild oat; Rate 2 g/ha,0
same,Wild oat (1) plant response rating,wild oat; Rate 4 g/ha,0
same,Wild oat (2) plant response rating,wild oat; Rate 4 g/ha,0
same,Wild oat (1) plant response rating,wild oat; Rate 8 g/ha,0
same,Wild oat (2) plant response rating,wild oat; Rate 8 g/ha,0
same,Wild oat (1) plant response rating,wild oat; Rate 16 g/ha,0
same,Wild oat (2) plant response rating,wild oat; Rate 16 g/ha,0
same,Wild oat (1) plant response rating,wild oat; Rate 32 g/ha,10
same,Wild oat (2) plant response rating,wild oat; Rate 32 g/ha,10
same,Persn Speedwell plant response rating,speedwell; Rate 2 g/ha,100
same,Persn Speedwell plant response rating,speedwell; Rate 4 g/ha,100
same,Persn Speedwell plant response rating,speedwell; Rate 8 g/ha,100
same,Persn Speedwell plant response rating,speedwell; Rate 16 g/ha,100
same,Persn Speedwell plant response rating,speedwell; Rate 32 g/ha,100
same,Kochia plant response rating,kochia; Rate 2 g/ha,75
same,Kochia plant response rating,kochia; Rate 4 g/ha,80
same,Kochia plant response rating,kochia; Rate 8 g/ha,80
same,Kochia plant response rating,kochia; Rate 16 g/ha,100
same,Kochia plant response rating,kochia; Rate 32 g/ha,100
same,Wild mustard plant response rating,wild mustard; Rate 2 g/ha,40
same,Wild mustard plant response rating,wild mustard; Rate 4 g/ha,100
same,Wild mustard plant response rating,wild mustard; Rate 16 g/ha,100
same,Wild mustard plant response rating,wild mustard; Rate 32 g/ha,100
same,Wheat (Spring) plant response rating,spring wheat; Rate 2 g/ha,0
same,Wheat (Spring) plant response rating,spring wheat; Rate 4 g/ha,0
same,Wheat (Spring) plant response rating,spring wheat; Rate 8 g/ha,0
same,Wheat (Spring) plant response rating,spring wheat; Rate 16 g/ha,10
same,Wheat (Spring) plant response rating,spring wheat; Rate 32 g/ha,10
same,Sugar beet plant response rating,sugar beet; Rate 2 g/ha,100
same,Sugar beet plant response rating,sugar beet; Rate 8 g/ha,100
same,Sugar beet plant response rating,sugar beet; Rate 16 g/ha,100
same,Sugar beet plant response rating,sugar beet; Rate 32 g/ha,100
same,Galium (1) plant response rating,galium; Rate 2 g/ha,0
same,Galium (2) plant response rating,galium; Rate 2 g/ha,0
same,Galium (1) plant response rating,galium; Rate 4 g/ha,0
same,Galium (2) plant response rating,galium; Rate 4 g/ha,0
same,Galium (1) plant response rating,galium; Rate 8 g/ha,40
same,Galium (2) plant response rating,galium; Rate 8 g/ha,30
same,Galium (1) plant response rating,galium; Rate 16 g/ha,40
same,Galium (2) plant response rating,galium; Rate 16 g/ha,60
same,Galium (1) plant response rating,galium; Rate 32 g/ha,60
same,Galium (2) plant response rating,galium; Rate 32 g/ha,60
same,Wild radish plant response rating,wild radish; Rate 2 g/ha,0
same,Wild radish plant response rating,wild radish; Rate 4 g/ha,0
same,Wild radish plant response rating,wild radish; Rate 8 g/ha,10
same,Wild radish plant response rating,wild radish; Rate 16 g/ha,20
same,Wild radish plant response rating,wild radish; Rate 32 g/ha,20
same,Winter Barley plant response rating,winter barley; Rate 2 g/ha,10
same,Winter Barley plant response rating,winter barley; Rate 4 g/ha,10
same,Winter Barley plant response rating,winter barley; Rate 8 g/ha,10
same,Winter Barley plant response rating,winter barley; Rate 16 g/ha,10
same,Winter Barley plant response rating,winter barley; Rate 32 g/ha,10
same,Green foxtail plant response rating,green foxtail; Rate 2 g/ha,0
same,Green foxtail plant response rating,green foxtail; Rate 4 g/ha,0
same,Green foxtail plant response rating,green foxtail; Rate 8 g/ha,0
same,Green foxtail plant response rating,green foxtail; Rate 16 g/ha,10
same,Green foxtail plant response rating,green foxtail; Rate 32 g/ha,60
same,Ryegrass plant response rating,ryegrass; Rate 2 g/ha,0
same,Ryegrass plant response rating,ryegrass; Rate 4 g/ha,0
same,Ryegrass plant response rating,ryegrass; Rate 8 g/ha,0
same,Ryegrass plant response rating,ryegrass; Rate 16 g/ha,0
same,Ryegrass plant response rating,ryegrass; Rate 32 g/ha,30
same,Downy brome plant response rating,downy brome; Rate 2 g/ha,0
same,Downy brome plant response rating,downy brome; Rate 4 g/ha,0
same,Downy brome plant response rating,downy brome; Rate 8 g/ha,0
same,Downy brome plant response rating,downy brome; Rate 16 g/ha,0
same,Downy brome plant response rating,downy brome; Rate 32 g/ha,0
same,Chickweed plant response rating,chickweed; Rate 2 g/ha,0
same,Chickweed plant response rating,chickweed; Rate 4 g/ha,0
same,Chickweed plant response rating,chickweed; Rate 8 g/ha,0
same,Chickweed plant response rating,chickweed; Rate 16 g/ha,0
same,Chickweed plant response rating,chickweed; Rate 32 g/ha,0
